Source: US20250197372A1 (priority 2020, published 2025)
pIC50: −log10 of the molar value.

How the values were obtained:
Assay type in all cases: biochemical
[1] = molecular target: T1, recombinant alpha-glucosidase I (human full-length glucosidase I, Glu 1) (Homo sapiens, UniProt Q13724); assay: Alpha-glucosidase I assay (Amplex Red glucose detection, synthetic trisaccharide substrate); conditions: Glucosidase 1; read-out: Glu 1 IC50
T1 construct: 6-His (C); made in house; host or cells: HEK-293T cells transduced with BacMam virus (virus raised in Sf9)
T1 sequence (Q13724 1-837): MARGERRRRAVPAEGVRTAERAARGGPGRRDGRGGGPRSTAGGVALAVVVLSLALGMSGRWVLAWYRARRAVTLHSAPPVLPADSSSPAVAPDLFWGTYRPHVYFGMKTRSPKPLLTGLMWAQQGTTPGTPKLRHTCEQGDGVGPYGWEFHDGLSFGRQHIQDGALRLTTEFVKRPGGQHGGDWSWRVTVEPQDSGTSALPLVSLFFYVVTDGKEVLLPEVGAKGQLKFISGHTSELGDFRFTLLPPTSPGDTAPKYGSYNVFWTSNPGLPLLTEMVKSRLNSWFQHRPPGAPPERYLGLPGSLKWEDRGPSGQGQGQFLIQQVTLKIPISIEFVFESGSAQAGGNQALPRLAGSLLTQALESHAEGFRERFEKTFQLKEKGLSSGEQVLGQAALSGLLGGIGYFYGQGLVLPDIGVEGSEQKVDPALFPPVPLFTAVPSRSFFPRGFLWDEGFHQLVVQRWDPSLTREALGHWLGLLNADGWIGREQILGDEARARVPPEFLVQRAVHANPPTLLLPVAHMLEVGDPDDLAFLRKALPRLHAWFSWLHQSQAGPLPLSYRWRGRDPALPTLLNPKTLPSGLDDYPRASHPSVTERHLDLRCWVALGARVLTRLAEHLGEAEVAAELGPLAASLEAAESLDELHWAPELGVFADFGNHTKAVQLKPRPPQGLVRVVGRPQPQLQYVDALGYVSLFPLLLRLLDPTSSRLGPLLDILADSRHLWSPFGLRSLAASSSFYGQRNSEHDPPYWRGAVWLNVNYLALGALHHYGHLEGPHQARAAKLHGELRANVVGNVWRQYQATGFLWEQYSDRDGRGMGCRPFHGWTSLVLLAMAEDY
Summary of the method: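 Compound dilution series incubated 60 min at 37° C with recombinant His-tagged human glucosidase I ([…]), after which trisaccharide substrate analog was added for 90 min at 37° C. Reaction quenched with 1.5M Tris pH 8; D-glucose detected by Amplex Red fluorescence, 560/590 nm. 4-PL curve fit of percent inhibition gave IC50.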

[2] = molecular target: T2, recombinant alpha-glucosidase II (murine full-length glucosidase II, alpha and beta subunits, Glu 2) (Mus musculus, UniProt Q8BHN3); assay: Alpha-glucosidase II assay (4-methylumbelliferyl-alpha-D-pyranoside substrate, fluorescence); conditions: Glucosidase 2; read-out: Glu2 IC50
T2 construct: made in house; host or cells: HEK-293T cells transduced with BacMam viruses (75% alpha, 25% beta); protein harvested from culture supernatant

[3] = molecular target: rat maltase (partially purified alpha-glucosidase from intestinal rat powder); assay: Intestinal alpha-glucosidase assay, maltose substrate (Glucose GO Kit)
Summary of the method: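 Rat intestinal enzyme prep + test cpd dilutions, 60 min 37 °C; add maltose (maltase) or sucrose (sucrase), 30 min 37 °C; stop 90 °C 5 min. Glucose readout (glucose oxidase kit). IC50 from 4-PL fit of % inhibition vs conc.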

T2 sequence (O08795 15-521): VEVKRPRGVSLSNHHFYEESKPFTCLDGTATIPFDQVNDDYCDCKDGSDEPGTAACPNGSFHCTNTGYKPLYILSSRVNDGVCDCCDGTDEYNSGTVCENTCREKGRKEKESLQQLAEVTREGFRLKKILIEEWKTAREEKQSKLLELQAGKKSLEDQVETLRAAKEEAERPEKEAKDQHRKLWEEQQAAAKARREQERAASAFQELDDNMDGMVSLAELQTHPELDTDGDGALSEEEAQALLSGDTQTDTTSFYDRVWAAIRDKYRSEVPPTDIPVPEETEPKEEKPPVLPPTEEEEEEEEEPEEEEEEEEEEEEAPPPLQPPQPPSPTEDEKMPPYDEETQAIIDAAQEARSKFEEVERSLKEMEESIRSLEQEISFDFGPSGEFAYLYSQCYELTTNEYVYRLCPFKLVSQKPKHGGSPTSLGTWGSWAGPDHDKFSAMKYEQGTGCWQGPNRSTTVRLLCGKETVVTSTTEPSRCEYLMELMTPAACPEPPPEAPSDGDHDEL
T2 sequence (Q8BHN3 33-944): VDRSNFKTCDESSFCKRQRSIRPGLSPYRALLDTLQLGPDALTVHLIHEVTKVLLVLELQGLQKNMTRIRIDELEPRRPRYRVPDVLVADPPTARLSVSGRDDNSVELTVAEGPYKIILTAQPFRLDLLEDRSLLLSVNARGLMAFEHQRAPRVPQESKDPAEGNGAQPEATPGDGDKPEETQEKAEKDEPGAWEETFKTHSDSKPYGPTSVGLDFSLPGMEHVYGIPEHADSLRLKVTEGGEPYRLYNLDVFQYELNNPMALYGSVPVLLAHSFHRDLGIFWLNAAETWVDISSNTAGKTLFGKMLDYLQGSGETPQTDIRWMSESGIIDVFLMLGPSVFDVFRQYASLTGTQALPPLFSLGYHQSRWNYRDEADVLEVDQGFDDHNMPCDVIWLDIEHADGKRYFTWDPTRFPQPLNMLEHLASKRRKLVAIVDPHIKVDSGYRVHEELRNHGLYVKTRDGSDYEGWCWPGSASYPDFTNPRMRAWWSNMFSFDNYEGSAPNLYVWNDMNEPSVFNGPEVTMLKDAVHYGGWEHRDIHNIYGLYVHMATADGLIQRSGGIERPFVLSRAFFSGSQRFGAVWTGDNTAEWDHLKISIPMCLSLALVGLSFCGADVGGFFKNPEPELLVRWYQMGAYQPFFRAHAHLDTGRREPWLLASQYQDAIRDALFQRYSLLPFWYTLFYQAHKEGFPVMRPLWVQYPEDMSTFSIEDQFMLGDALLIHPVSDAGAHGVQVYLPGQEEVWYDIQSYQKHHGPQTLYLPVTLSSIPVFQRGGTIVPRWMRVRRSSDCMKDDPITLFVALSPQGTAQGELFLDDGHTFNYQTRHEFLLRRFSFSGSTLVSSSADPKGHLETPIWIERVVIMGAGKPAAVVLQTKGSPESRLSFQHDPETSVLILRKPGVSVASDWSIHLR

SMILES	pIC50 [1]	pIC50 [2]	pIC50 [3]
Cc1cc(NCc2ccc(CN3C[C@H](O)[C@@H](O)[C@H](O)[C@H]3CO)cc2)cc(-c2ccc[nH]2)c1 [Compound 1051, (2R,3R,4R,5S)-2-(hydroxymethyl)-1-{[4-({[3-methyl-5-(1H-pyrrol-2-yl)phenyl]amino}methyl)phenyl]methyl}piperidine-3,4,5-triol]	7.32	6.67	> 9.00
OC[C@@H]1[C@@H](O)[C@H](O)[C@@H](O)CN1Cc1ccc(CNc2ccc(CN3CCCO3)cc2)cc1 [Compound 1092, (2R,3R,4R,5S)-2-(hydroxymethyl)-1-({4-[({4-[(1,2-oxazolidin-2-yl)methyl]phenyl}amino)methyl]phenyl}methyl)piperidine-3,4,5-triol]	7.23	5.75	7.42
OC[C@@H]1[C@@H](O)[C@H](O)[C@@H](O)CN1Cc1cccc(CNc2ccc(C3=COCCO3)cc2)c1 [Compound 1066, (2R,3R,4R,5S)-1-{[3-({[4-(5,6-dihydro-1,4-dioxin-2-yl)phenyl]amino}methyl)phenyl]methyl}-2-(hydroxymethyl)piperidine-3,4,5-triol]	7.16	5.47	7.39
O=[N+]([O-])c1cc(CN2CCCO2)ccc1NCCc1ccc(CCN2C[C@H](O)[C@@H](O)[C@H](O)[C@H]2CO)cc1 [Compound 1108, (2R,3R,4R,5S)-2-(hydroxymethyl)-1-(2-{4-[2-({2-nitro-4-[(1,2-oxazolidin-2-yl)methyl]phenyl}amino)ethyl]phenyl}ethyl)piperidine-3,4,5-triol]	6.61	8.15	7.01
O=[N+]([O-])c1cc(-c2ncccn2)ccc1NCc1cccc(CN2C[C@H](O)[C@@H](O)[C@H](O)[C@H]2CO)c1 [Compound 1090, (2R,3R,4R,5S)-2-(hydroxymethyl)-1-{[3-({[2-nitro-4-(pyrimidin-2-yl)phenyl]amino}methyl)phenyl]methyl}piperidine-3,4,5-triol]	8.15	4.86	7.47
N#Cc1cc(NCc2ccc(CN3C[C@H](O)[C@@H](O)[C@H](O)[C@H]3CO)cc2)cc(-c2cccnn2)c1 [Compound 1064, 3-(pyridazin-3-yl)-5-{[(4-{[(2R,3R,4R,5S)-3,4,5-trihydroxy-2-(hydroxymethyl)piperidin-1-yl]methyl}phenyl)methyl]amino}-benzonitrile]	7.92	8.70	8.70
COC(=O)c1cc(Cl)cc(NCCc2ccc(CCN3C[C@H](O)[C@@H](O)[C@H](O)[C@H]3CO)cc2)c1 [Compound 1116, methyl 3-chloro-5-{[2-(4-{2-[(2R,3R,4R,5S)-3,4,5-trihydroxy-2-(hydroxymethyl)piperidin-1-yl]ethyl}phenyl)ethyl]amino}benzoate]	5.87	> 9.00	6.79
O=[N+]([O-])c1cc(C2=COCCO2)ccc1NCc1cccc(CN2C[C@H](O)[C@@H](O)[C@H](O)[C@H]2CO)c1 [Compound 1087, (2R,3R,4R,5S)-1-{[3-({[4-(5,6-dihydro-1,4-dioxin-2-yl)-2-nitro-phenyl]amino}methyl)phenyl]methyl}-2-(hydroxymethyl)piperidine-3,4,5-triol]	> 9.00	5.09	8.40
O=[N+]([O-])c1cc(-c2ncccn2)ccc1NCCc1ccc(CCN2C[C@H](O)[C@@H](O)[C@H](O)[C@H]2CO)cc1 [Compound 1111, (2R,3R,4R,5S)-2-(hydroxymethyl)-1-{2-[4-(2-{[2-nitro-4-(pyrimidin-2-yl)phenyl]amino}ethyl)phenyl]ethyl}piperidine-3,4,5-triol]	7.17	8.00	> 9.00
N#Cc1cc(NCc2cccc(CN3C[C@H](O)[C@@H](O)[C@H](O)[C@H]3CO)c2)cc(-c2cccnn2)c1 [Compound 1046, 3-(pyridazin-3-yl)-5-{[(3-{[(2R,3R,4R,5S)-3,4,5-trihydroxy-2-(hydroxymethyl)piperidin-1-yl]methyl}phenyl)methyl]amino}benzonitrile]	7.77	4.75	8.22
[N-]=[N+]=Nc1ccc(NCc2ccc(Cc3ccc(CN4C[C@H](O)[C@@H](O)[C@H](O)[C@H]4CO)cc3)cc2)c([N+](=O)[O-])c1 [Compound 1105, (2R,3R,4R,5S)-1-({4-[(4-{[(4-azido-2-nitrophenyl)amino]methyl}phenyl)methyl]phenyl}methyl)-2-(hydroxymethyl)piperidine-3,4,5-triol]	7.80	6.82	8.22
[N-]=[N+]=Nc1ccc(NCCc2cc(CCN3C[C@H](O)[C@@H](O)[C@H](O)[C@H]3CO)cc(C3CCCCC3)c2)c([N+](=O)[O-])c1 [Compound 1115, (2R,3R,4R,5S)-1-[2-(3-{2-[(4-azido-2-nitrophenyl)amino]ethyl}-5-cyclohexylphenyl)ethyl]-2-(hydroxymethyl)piperidine-3,4,5-triol]	7.00	5.97	5.17
OC[C@@H]1[C@@H](O)[C@H](O)[C@@H](O)CN1CCCCCCNc1cc(C2CC2)cc(N2CCOCC2)c1 [Compound 1006, (2R,3R,4R,5S)-1-(6-{[3-cyclopropyl-5-(morpholin-4-yl)phenyl]amino}hexyl)-2-(hydroxymethyl)piperidine-3,4,5-triol]	6.66	9.00	8.00
CC(C)c1cc(CCNc2ccc(N=[N+]=[N-])cc2[N+](=O)[O-])cc(CCN2C[C@H](O)[C@@H](O)[C@H](O)[C@H]2CO)c1 [Compound 1077, (2R,3R,4R,5S)-1-[2-(3-{2-[(4-azido-2-nitrophenyl)amino]ethyl}-5-(propan-2-yl)phenyl)ethyl]-2-(hydroxymethyl)piperidine-3,4,5-triol]	6.16	6.69	5.18
Cc1cc(CN2CCOCC2)cc(NCc2ccc(CN3C[C@H](O)[C@@H](O)[C@H](O)[C@H]3CO)cc2)c1 [Compound 1005, (2R,3R,4R,5S)-2-(hydroxymethyl)-1-({4-[({3-methyl-5-[(morpholin-4-yl)methyl]phenyl}amino)methyl]phenyl}methyl)piperidine-3,4,5-triol]	6.39	5.80	7.24
N#Cc1cc(NCc2ccc(CN3C[C@H](O)[C@@H](O)[C@H](O)[C@H]3CO)cc2)cc(C2=COCCO2)c1 [Compound 1062, 3-(5,6-dihydro-1,4-dioxin-2-yl)-5-{[(4-{[(2R,3R,4R,5S)-3,4,5-trihydroxy-2-(hydroxymethyl)piperidin-1-yl]methyl}phenyl)-methyl]amino}benzonitrile]	9.00	> 9.00	> 9.00
O=[N+]([O-])c1cc(-c2ncc[nH]2)ccc1NCCc1ccc(CCN2C[C@H](O)[C@@H](O)[C@H](O)[C@H]2CO)cc1 [Compound 1078, (2R,3R,4R,5S)-2-(hydroxymethyl)-1-{2-[4-(2-{[4-(1H-imidazol-2-yl)-2-nitrophenyl]amino}ethyl)phenyl]ethyl}piperidine-3,4,5-triol]	6.70	7.02	7.55
O=[N+]([O-])c1cc(-c2cccnn2)ccc1NCCc1ccc(CCN2C[C@H](O)[C@@H](O)[C@H](O)[C@H]2CO)cc1 [Compound 1109, (2R,3R,4R,5S)-2-(hydroxymethyl)-1-{2-[4-(2-{[2-nitro-4-(pyridazin-3-yl)phenyl]amino}ethyl)phenyl]ethyl}piperidine-3,4,5-triol]	8.22	> 9.00	9.00
[N-]=[N+]=Nc1ccc(NCCC23CC(CCN4C[C@H](O)[C@@H](O)[C@H](O)[C@H]4CO)(C2)C3)c([N+](=O)[O-])c1 [Compound 1103, (2R,3R,4R,5S)-1-[2-(3-{2-[(4-azido-2-nitrophenyl)amino]ethyl}bicyclo[1.1.1]pentan-1-yl)ethyl]-2-(hydroxymethyl)piperidine-3,4,5-triol]	6.57	8.30	6.55
O=C(O)c1cc(Cl)cc(NCCc2ccc(CCN3C[C@H](O)[C@@H](O)[C@H](O)[C@H]3CO)cc2)c1 [Compound 1117, 3-chloro-5-{[2-(4-{2-[(2R,3R,4R,5S)-3,4,5-trihydroxy-2-(hydroxymethyl)piperidin-1-yl]ethyl}phenyl)ethyl]amino}benzoic acid]	6.06	6.86	6.66
